Source: PMC10108742, “Design, synthesis and evaluation of OA-tacrine hybrids as cholinesterase inhibitors with low neurotoxicity and hepatotoxicity against Alzheimer’s disease” (Journal of Enzyme Inhibition and Medicinal Chemistry, 2023)
Read-outs that look alike come from different tables or passages of the source.

Columns and labels:
hAChE = target: T1, hAChE (Homo sapiens, UniProt P22303); assay: biochemical
T1 construct: purchased Sigma Aldrich
Description: (§1) The capacity of all the target compounds to inhibit hAChE and hBuChE activities were assessed by Ellman’s method. […] Results are expressed as the mean ± SD of at least three different experiments performed in triplicate.
Buffer was freshly prepared and stored in the refrigerator. […] All solutions were stored in Eppendorf caps in the refrigerator or freezer, if necessary. […] The final concentrations for the enzymatic assay were yielded by diluting the stock solution with bi-distilled water.
(§2) A mixture of the DTNB solution (160 µL), enzyme solution (50 µL) and compounds solutions (10 µL, 3 different concentrations and once blank water) was prepared and incubated at 37 °C for 10 min. The substrate (30 µL) was added to start the enzymatic reaction. […] All measurements were performed as triplicates.

hBuChE = target: T2, hBuChE (Homo sapiens, UniProt P06276); assay: hBuChE inhibition, Ellman's method; type: biochemical; details: hBuChE from human serum, mean ± SD of three experiments
T2 construct: purchased Sigma Aldrich
Description: as §1, with “hAChE, hBuChE, Acetylcholinesterase Activity Assay Kit and Butyrylcholinesterase Activity Assay Kit were purchased from Sigma Aldrich. […] The” for “The”
Preparation of 50 mM Tris–HCl buffer solutions: 5 ml Tris solution (1 M, Ph 8.5, Beyotime Biotechnology) was dissolved in distilled water (95 ml) and adjusted with HCl to a pH of 8.0 ± 0.1. Buffer was freshly prepared and stored in the refrigerator. […] All solutions were stored in Eppendorf caps in the refrigerator or freezer, if necessary. […] The final concentrations for the enzymatic assay were yielded by diluting the stock solution with bi-distilled water.
as §2

SH-SY5Y cells = assay: Cell viability in SH-SY5Y cells, CCK-8 assay; details: 24 h
Description: (§3) Figure 5. Effects of various concentrations of compounds on cell viability in SH-SY5Y cells and HepG2 cells after treatment for 24 h. Cell viability was measured by CCK-8 assay. Data were shown as mean ± SD of three independent experiments.
(§4) HepG2 and SH-SY5Y cells were obtained from the Cell Bank of Shanghai Institute of Biochemistry and Cell Biology, Chinese Academy of Sciences (Shanghai, China). HepG2 and SH-SY5Y cells were cultured in MEM or MEM/F12 supplemented with 10% FBS, 100 units mL^−1 penicillin/streptomycin and maintained in a humidified atmosphere of 5% CO2 at 37 °C. Initially, 8000 cells per well were seeded in 96-well plates for HepG2 or SH-SY5Y cells, then treated with vehicle alone or tested compounds for 24 h. Then 10 μL CCK8 purchased from CELLCOOK was added to each well and further incubated for another 3 h. The absorbance was measured using a microplate reader (450 nm).

HepG2 cells [1] = assay: Cell viability in HepG2 cells, CCK-8 assay; details: 24 h
Description: as §3, §4

HepG2 cells [2] = assay: Apoptosis in HepG2 cells, AnnexinV/PI double staining, flow cytometry; details: 50 μM, 24 h, control group 4.34%
Description: Figure 6. […] Apoptotic cells detected by flow cytometry after AnnexinV and PI double staining.
Annexin V-FITC and propidium iodide were used to evaluate apoptotic cells by flow cytometry. Cells were treated with different concentrations of tested compounds for 24 h. Then the cells were washed twice with phosphate-buffered saline (PBS) (centrifugation at 2000 rpm, 5 min). The collected cells were then resuspended in 500 μL of binding buffer. After stained with 5 μL AnnexinV-FITC and 5 μL propidium iodide at room temperature for 15 min. Cells were then analysed by BD Accuri C6 flow cytometer with cell quest software (Becton & Dickinson Company, Franklin Lakes, NJ). Cells undergoing apoptosis are both Annexin V positive and PI negative.

HepG2 cells [3] = assay: Intracellular ROS production in HepG2 cells, DCFH-DA, flow cytometry; details: 50 μM, compared with control / tacrine group
Description: The percentage of cells for ROS was stained with DCFH-DA and the stained cells were immediately determined by flow cytometry.
The level of intracellular ROS was measured by using the ROS-sensitive dye, 2′,7′-dichloro-fluorescein diacetate (DCFH-DA), as a probe. In brief, cells were seeded in six-well plates at 2.0 × 10^5 cells/well, treating with different tested compounds for 24 h, and then washed three times and incubated with final concentration of 10 μM DCFH-DA for 30 min at 37 °C in the dark. After incubation, cells were washed three times and harvested in free-serum medium. […] Data were processed by using cell quest software (Becton & Dickinson Company, Franklin Lakes, NJ).

[4] = hAChE from human erythrocytes, mean ± SD of three experiments

T1 sequence (P22303 32-614): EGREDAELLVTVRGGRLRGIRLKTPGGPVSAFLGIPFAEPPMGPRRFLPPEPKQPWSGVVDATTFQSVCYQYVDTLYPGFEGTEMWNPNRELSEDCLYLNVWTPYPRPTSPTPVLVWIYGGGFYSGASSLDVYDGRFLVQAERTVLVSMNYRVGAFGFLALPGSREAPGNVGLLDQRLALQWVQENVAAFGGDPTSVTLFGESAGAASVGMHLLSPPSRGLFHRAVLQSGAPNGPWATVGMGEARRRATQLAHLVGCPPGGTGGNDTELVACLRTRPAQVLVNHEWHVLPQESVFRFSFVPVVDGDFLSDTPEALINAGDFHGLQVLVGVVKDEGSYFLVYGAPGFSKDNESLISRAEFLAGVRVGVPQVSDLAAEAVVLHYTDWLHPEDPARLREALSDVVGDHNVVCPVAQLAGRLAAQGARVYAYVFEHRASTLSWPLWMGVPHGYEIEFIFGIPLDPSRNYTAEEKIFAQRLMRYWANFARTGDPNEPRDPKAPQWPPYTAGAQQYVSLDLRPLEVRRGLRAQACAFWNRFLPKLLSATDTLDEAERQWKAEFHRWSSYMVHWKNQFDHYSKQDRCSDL
T2 sequence (P06276 29-602): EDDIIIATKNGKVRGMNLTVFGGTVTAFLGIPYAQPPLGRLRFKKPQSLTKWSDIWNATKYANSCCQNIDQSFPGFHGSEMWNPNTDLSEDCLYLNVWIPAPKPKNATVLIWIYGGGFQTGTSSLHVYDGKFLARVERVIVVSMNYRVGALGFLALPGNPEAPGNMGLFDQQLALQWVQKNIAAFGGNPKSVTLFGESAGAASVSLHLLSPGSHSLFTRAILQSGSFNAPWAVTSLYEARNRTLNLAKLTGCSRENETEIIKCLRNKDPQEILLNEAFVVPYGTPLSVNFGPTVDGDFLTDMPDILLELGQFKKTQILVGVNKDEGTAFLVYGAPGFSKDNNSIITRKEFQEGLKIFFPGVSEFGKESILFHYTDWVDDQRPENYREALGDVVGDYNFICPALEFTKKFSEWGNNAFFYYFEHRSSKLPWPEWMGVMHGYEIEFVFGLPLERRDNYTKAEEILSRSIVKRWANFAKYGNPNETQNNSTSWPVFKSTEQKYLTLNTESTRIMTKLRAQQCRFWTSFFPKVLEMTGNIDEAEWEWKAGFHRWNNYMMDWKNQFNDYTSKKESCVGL

Row | SMILES | IC50 (hAChE) [µM] | IC50 (hBuChE; IC50 hBuChE) [µM] | IC50 (hBuChE; read-out: IC50 hBuChE) [µM] | SI (selectivity index, hBuChE/hAChE) (hAChE) | also measured
1 | CC1(C)CC[C@]2(C(=O)NCCCNc3c4c(nc5cc(F)ccc35)CCCC4)CC[C@]3(C)C(=CCC4[C@@]5(C)CC[C@H](O)C(C)(C)C5CC[C@]43C)C2C1 (stereo partly drawn) [Compound F2] | > 10 | > 10 | – | – | –
2 | CC1(C)CC[C@]2(C(=O)NCCCCCCNc3c4c(nc5c(Br)cccc35)CCCC4)CC[C@]3(C)C(=CCC4[C@@]5(C)CC[C@H](O)C(C)(C)C5CC[C@]43C)C2C1 (stereo partly drawn) [Compound E5, N-(6-((5-bromo-1,2,3,4-tetrahydroacridin-9-yl)amino)hexyl)-olean-12-en-28-amide] | > 10 | – | > 10 | – | –
3 | CC1(C)CC[C@]2(C(=O)NCCCCCNc3c4c(nc5c(F)cccc35)CCCC4)CC[C@]3(C)C(=CCC4[C@@]5(C)CC[C@H](O)C(C)(C)C5CC[C@]43C)C2C1 (stereo partly drawn) [Compound G4, N-(5-((5-fluoro-1,2,3,4-tetrahydroacridin-9-yl)amino)pentyl)-olean-12-en-28-amide] | > 10 | – | 1.6 ± 0.0904 | <0.16 | –
4 | CC1(C)CC[C@]2(C(=O)NCCCNc3c4c(nc5c(Br)cccc35)CCCC4)CC[C@]3(C)C(=CCC4[C@@]5(C)CC[C@H](O)C(C)(C)C5CC[C@]43C)C2C1 (stereo partly drawn) [Compound E2] | – | > 10 | – | – | IC50 (hAChE; [4]): > 10 µM
5 | CC1(C)CC[C@]2(C(=O)NCCCNc3c4c(nc5c(Cl)cccc35)CCCC4)CC[C@]3(C)C(=CCC4[C@@]5(C)CC[C@H](O)C(C)(C)C5CC[C@]43C)C2C1 (stereo partly drawn) [Compound C2, N-(3-((5-chloro-1,2,3,4-tetrahydroacridin-9-yl)amino)propyl)-olean-12-en-28-amide] | > 10 | – | > 10 | – | –
6 | CC1(C)CC[C@]2(C(=O)NCCNc3c4c(nc5cc(F)ccc35)CCCC4)CC[C@]3(C)C(=CCC4[C@@]5(C)CC[C@H](O)C(C)(C)C5CC[C@]43C)C2C1 (stereo partly drawn) [Compound F1, N-(2-((6-fluoro-1,2,3,4-tetrahydroacridin-9-yl)amino)ethyl)-olean-12-en-28-amide] | > 10 | – | > 10 | – | –
7 | CC1(C)CC[C@]2(C(=O)NCCCNc3c4c(nc5c(F)cccc35)CCCC4)CC[C@]3(C)C(=CCC4[C@@]5(C)CC[C@H](O)C(C)(C)C5CC[C@]43C)C2C1 (stereo partly drawn) [Compound G2] | > 10 | 0.921 ± 0.0587 | – | <0.09 | –
8 | CC1(C)CC[C@]2(C(=O)NCCNc3c4c(nc5cc(Br)ccc35)CCCC4)CC[C@]3(C)C(=CCC4[C@@]5(C)CC[C@H](O)C(C)(C)C5CC[C@]43C)C2C1 (stereo partly drawn) [Compound D1, N-(2-((6-bromo-1,2,3,4-tetrahydroacridin-9-yl)amino)ethyl)-olean-12-en-28-amide] | > 10 | – | > 10 | – | –
9 | CC1(C)CC[C@]2(C(=O)NCCCCCNc3c4c(nc5ccccc35)CCCC4)CC[C@]3(C)C(=CCC4[C@@]5(C)CC[C@H](O)C(C)(C)C5CC[C@]43C)C2C1 (stereo partly drawn) [Compound A3] | 0.775 ± 0.28 | – | 2.78 ± 0.0607 | 3.59 | –
10 | Nc1c2c(nc3ccccc13)CCCC2 [Tacrine] | – | – | – | – | cytotoxicity to SH-SY5Y cells (cell viability) (SH-SY5Y cells; 50–100 μM): cytotoxic; cytotoxicity to HepG2 cells (cell viability) (HepG2 cells [1]; 50–100 μM): cytotoxic; percentage of apoptotic cells (HepG2 cells [2]): 18.90%; intracellular ROS levels (in words) (HepG2 cells [3]): significant hepatotoxicity
11 | CC1(C)CC[C@]2(C(=O)NCCNc3c4c(nc5c(Cl)cccc35)CCCC4)CC[C@]3(C)C(=CCC4[C@@]5(C)CC[C@H](O)C(C)(C)C5CC[C@]43C)C2C1 (stereo partly drawn) [Compound C1, N-(2-((5-chloro-1,2,3,4-tetrahydroacridin-9-yl)amino)ethyl)-olean-12-en-28-amide] | > 10 | – | > 10 | – | –
12 | CC1(C)CC[C@]2(C(=O)NCCCCCCNc3c4c(nc5cc(Cl)ccc35)CCCC4)CC[C@]3(C)C(=CCC4[C@@]5(C)CC[C@H](O)C(C)(C)C5CC[C@]43C)C2C1 (stereo partly drawn) [Compound B4] | 0.0144 ± 0.00189 | > 10 | – | >695.89 | effect on SH-SY5Y cell viability (SH-SY5Y cells; 50 μM): little effect; HepG2 cell viability rate (HepG2 cells [1]; 50 μM): close to that of the control group; percentage of apoptotic cells (HepG2 cells [2]): 7.69%; intracellular ROS levels (in words) (HepG2 cells [3]): significantly lower than that in the tacrine group
13 | CC1(C)CC[C@]2(C(=O)NCCCCNc3c4c(nc5cc(F)ccc35)CCCC4)CC[C@]3(C)C(=CCC4[C@@]5(C)CC[C@H](O)C(C)(C)C5CC[C@]43C)C2C1 (stereo partly drawn) [Compound F3, N-(4-((6-fluoro-1,2,3,4-tetrahydroacridin-9-yl)amino)butyl)-olean-12-en-28-amide] | – | > 10 | – | – | IC50 (hAChE; [4]): > 10 µM
14 | CC1(C)CC[C@]2(C(=O)NCCCCCCNc3c4c(nc5c(F)cccc35)CCCC4)CC[C@]3(C)C(=CCC4[C@@]5(C)CC[C@H](O)C(C)(C)C5CC[C@]43C)C2C1 (stereo partly drawn) [Compound G5, N-(6-((5-fluoro-1,2,3,4-tetrahydroacridin-9-yl)amino)hexyl)-olean-12-en-28-amide] | > 10 | – | 3.81 ± 1.04 | <0.38 | –
